From patent EP1210336B1, “SUBSTITUTED BENZIMIDAZOLES AS NON-NUCLEOSIDE INHIBITORS OF REVERSE TRANSCRIPTASE” (THE UNITED STATES OF AMERICA, as represented by the …, priority 1999, dated 2001)
Several values for one entry are separate records, joined by “and”; a condition that tells them apart may be missing. Equal values may be shown once. Read-outs that look alike come from different tables or passages of the source.

Columns and labels:
[1] = molecular target: T1, HIV-1 WT RT (Human immunodeficiency virus type 1 group M subtype B, UniProt P03366); assay: biochemical; conditions: for IC50: read-out: IC50; for %inhibn (1µM) / inhibition at 1 µM: WT HIV-1 RT, 1 µM drug
T1 construct: purified RT protein (0.015 mg/mL) was incubated in a 100 µL reaction mixture

[2] = test system: WT virus (NL4-3); assay: microbe, parasite or virus in culture; format: cell-based, HIV-1; conditions: for EC50: read-out: EC50
Method: Evaluation of these compounds for the inhibition of HIV-1 was determined as the fifty percent cell culture inhibitory concentration (CIC50) in CEMSS cell culture with WT virus (NL4-3).
(§1) In this Example, the antiviral and cellular toxicity of NNRTIs was investigated, using the cytopathic cell killing assay described by Yang (Yang et al., "Characteristics of a Group of Non-nucleoside Reverse Transcriptase Inhibitors with Structural Diversity and Potent Anti-Human Immunodeficiency Virus Activity," Leukemia 9:S75-S85 [1995]). Briefly, in this method cells (e.g., the CEM-SS cell line, available from the NIAID AIDS Research and Reference Program [ARRRP]) were seeded at a density of 5 x 10^3 cells/well, into the wells of a 96-well microtiter plate. The cells were then infected with HIV virus (either mutant or WT), at a multiplicity of infection (MOI) previously determined to provide complete cell killing by 6 days of culture post-infection (e.g., MOI of 0.01-0.05). Each of the HIV isolates was pre-titered to induce equivalent levels of infection based on cell killing or virus production, prior to their use in these assays. A range of test compound concentrations was added to the wells in triplicate (e.g., serial half-log dilutions) to evaluate inhibition of HIV infection. Controls for each assay included drug controls (drug colorimetric control wells), drug cytotoxicity control wells (cells with drug), virus control wells (cells with virus), and cell viability controls (cells only). Positive control drugs (e.g., AZT and ddC) were also run in parallel.
(§2) After six days of incubation at 37°C, cell viability was determined spectrophotometrically at 450 nm for each well, using the metabolic reduction of XTT to a soluble colored formazan. (See, Gartner and Popovic, "Virus Isolation and Production, in Aldovini and Walker (eds.), Techniques in HIV Research, Stockton Press, NY, pp. […] [1991]; and Nara and Fischinger, "Quantitative Infectivity Assay for HIV-1 and HIV-2," Nature 332:469-470 [1988]).
(§3) The in vitro therapeutic index (TI50) was defined as the fold-difference between the EC50 and IC50. The results for the various compounds are included in Figures 8 and 19.

[3] = test system: NL4-3 (WT); assay: Cytopathic cell killing assay, cross-resistance profile, infected MT-4 cells; format: cell-based, HIV-1
Description: (§4) The various HIV isolates tested in the Figures are those corresponding to wild-type virus (NL4-3) and the other strains listed by their RT mutations. The three 4xAZT isolates included in the Figures represent AZT drug-resistant variants. For example, the 4xAZT/L100I isolate has five mutations: four mutations confer increased resistance to AZT, and the other mutation is located within the NNRTI binding pocket. TZB and nevir. (nevirapine) are two well-known NNRTIs, included in this experiment for comparison purposes. […]
as §1, §2, §3

[4] = test system: HIV-1 variant A98G; assay: as above; format: cell-based; conditions: Table 8; isolate A9SG; read-out: EC50
Description: as §4, §1, §2, §3

[5] = test system: HIV-1 variant K101E; assay: as above; format: cell-based
Description: as §4, §1, §2, §3

[6] = test system: HIV-1 variant K103N; assay: as above; format: cell-based; conditions: isolate K103N
Description: as §4, §1, §2, §3

[7] = test system: HIV-1 variant L100I; assay: as above; format: cell-based
Description: as §4, §1, §2, §3

[8] = test system: HIV-1 variant L74V; assay: as above; format: cell-based; conditions: Table 8; isolate 1.74V; read-out: EC50
Description: as §4, §1, §2, §3

[9] = test system: HIV-1 variant V106A; assay: as above; format: cell-based; conditions: Table 8; isolate V 106A; read-out: EC50
Description: as §4, §1, §2, §3

[10] = test system: HIV-1 variant V108I; assay: as above; format: cell-based
Description: as §4, §1, §2, §3

[11] = test system: HIV-1 variant V179D; assay: as above; format: cell-based; conditions: Table 8; isolate V179D; read-out: EC50
Description: as §4, §1, §2, §3

[12] = test system: HIV-1 variant Y181C; assay: as above; format: cell-based; conditions: isolate Y181C
Description: as §4, §1, §2, §3

[13] = test system: HIV-1 variant Y188C; assay: as above; format: cell-based
Description: as §4, §1, §2, §3

[14] = Table 7, concentration reducing cell killing or virus production by 50%, HIV-1 WT
[15] = Table 11, CEMSS/NL4-3, NRVC = reduction in viral CPE not seen (footnote)
[16] = Table 10 (values in µM), isolate NL4-3 (WT), read-out: EC50
[17] = Table 10 (values in µM), read-out: EC50
[18] = Table 10 (values in µM), isolate L1001, read-out: EC50
[19] = Human immunodeficiency virus 1, MT4, Table 9
[20] = Human immunodeficiency virus 1, MT4, Table 10 (values in µM)

Compound: 1-(2,6-difluorobenzyl)-2-(2,6-difluorophenyl)-4-acetamidobenzimidazole [compound 56]
- IC50 ([1]; Table 7, HIV-1 WT RT): 54700 nM
- %inhibn (1µM) ([1]; Table 7): 24%
- IC50 ([1]; Table 11, WT RT): 54700 nM
- EC50 [2, 14]: 1480 nM
- EC50 [2, 15]: 1480 nM
- EC50 ([3]; Table 8, isolate N1.43, read-out: EC50): 1.6 µM
- EC50 [3, 16]: 1.97 µM
- EC50 [4]: 4300 nM
- EC50 ([5]; Table 8, isolate K101E, read-out: EC50): > 20 µM
- EC50 ([6]; Table 8, read-out: EC50): > 20 µM
- EC50 [6, 17]: > 100 µM
- EC50 ([7]; Table 8, isolate 1.1001, read-out: EC50): 2.1 µM
- EC50 [7, 18]: 3.25 µM
- EC50 [8]: 1200 nM
- EC50 [9]: > 20000 nM
- EC50 ([10]; Table 8, isolate V1081, read-out: EC50): 5.3 µM
- EC50 [11]: > 10000 nM
- EC50 [12, 17]: > 100 µM
- EC50 ([13]; Table 8, isolate Y 188C, read-out: EC50): > 10 µM

Compound: CC(C)=CCn1c(-c2c(F)cccc2F)nc2c(C)cccc21 [(X= CH3) R = prenyl, 1-(3,3-dimethylallyl)-2-(2,6-difluorophenyl)-4-methylbenzimidazole]
- EC50 ([3]; Human immunodeficiency virus 1, NL43, MT4, Table 9, isolate NL4.3): 1.3 µM
- EC50 ([5]; Human immunodeficiency virus 1, MT4, Table 9, isolate KIOIE): > 20 µM
- EC50 [6, 19]: > 20 µM
- EC50 ([7]; Human immunodeficiency virus 1, MT4, Table 9, isolate L1001): 0.3 µM
- EC50 ([10]; Human immunodeficiency virus 1, MT4, Table 9, isolate V1081): > 20 µM
- EC50 [12, 19]: > 20 µM

Compound: Cc1cccc2c1nc(C(C)C)n2Cc1c(F)cccc1F [compound 34, 1-(2,6-difluorobenzyl)-2-isopropyl-4-methylbenzimidazole]
- inhibition at 10 µM ([1]; Table 3, WT RT, 10 µM drug concentration, read-out: %inhibn (10 µM)): 53%
- cytotoxicity and anti-viral effect (summary graph) ([2]; Figures 10-12, result in words): effective therapeutic dose

Compound: Fc1cccc(F)c1Cn1c(-c2c(F)cccc2F)nc2c(Br)cccc21 [compound 54, 4-bromo-1-(2,6-difluorobenzyl)-2-(2,6-difluorophenyl)benzimidazole]
- inhibition at 1 µM ([1]; Table 6, average of two experiments done in triplicates, read-out: %Inhibn (1µM)): 78%
- IC50 ([1]; Table 7, HIV-1 WT RT): 1610 nM
- inhibition at 1 µM ([1]; Table 7, read-out: %inhibn (1µM)): 78%
- IC50 ([1]; Table 11, WT RT): 1610 nM
- EC50 ([2]; Human immunodeficiency virus 1, NL43, CEM-SS, Table 7, concentration reducing cell killing or virus production by 50%, HIV-1 WT): 370 nM
- EC50 ([2]; Human immunodeficiency virus 1, NL43, CEM-SS, Table 11, CEMSS/NL4-3, NRVC = reduction in viral CPE not seen (footnote)): 370 nM
- EC50 ([3]; Human immunodeficiency virus 1, NL43, MT4, Table 10 (values in µM), isolate NL4-3 (WT)): 0.5 µM
- EC50 ([5]; Human immunodeficiency virus 1, MT4, Table 10 (values in µM), isolate K101E): > 20 µM
- EC50 [6, 20]: > 20 µM
- EC50 ([7]; Human immunodeficiency virus 1, MT4, Table 10 (values in µM), isolate L1001): 0.5 µM
- EC50 ([10]; Human immunodeficiency virus 1, MT4, Table 10 (values in µM), isolate V108l): 4.2 µM
- EC50 [12, 20]: 10.7 µM
- EC50 ([13]; Human immunodeficiency virus 1, MT4, Table 10 (values in µM), isolate Y188C): 3.7 µM

Compound: CN(C)c1cccc2c1nc(-c1c(F)cccc1F)n2Cc1c(F)cccc1F [compound 59, 1-(2,6-difluorobenzyl)-2-(2,6-difluorophenyl)-4-N,N dimethylaminobenzimidazole]
- IC50 ([1]; Table 7, HIV-1 WT RT): 40000 nM
- %inhibn (1µM) ([1]; Table 7): 77%
- IC50 ([1]; Table 11, WT RT): 40000 nM
- EC50 [2, 14]: 2370 nM
- EC50 [2, 15]: 2370 nM
- EC50 [3, 16]: 2.88 µM
- EC50 [6, 17]: > 100 µM
- EC50 [7, 18]: 31.8 µM
- EC50 [12, 17]: > 100 µM

Compound: CC(C)(O)c1cccc2c1nc(-c1c(F)cccc1F)n2Cc1c(F)cccc1F [compound 65, 1-(2,6-Difluorobenzyl)-2-(2,6-difluorophenyl)-4-benzimidazoyl-2-propanol]
- EC50 [2, 15]: 634000 nM

Compound: [N-]=[N+]=NCc1cccc2c1nc(-c1c(F)cccc1F)n2Cc1c(F)cccc1F [compound 70, 1-(2,6-difluorobenzyl)-2-(2,6-difluorophenyl)benzimidazol-4-yl-azidomethyl]
- EC50 [2, 15]: 45 nM
- EC50 ([3]; Table 10 (values in µM), isolate NL4-3 (WT), listed as CH2-N3, read-out: EC50): 0.045 µM and 0.06 µM
- EC50 ([5]; Table 10 (values in µM), isolate K101E, read-out: EC50): 0.6 µM
- EC50 [6, 17]: 1.48 µM
- EC50 ([10]; Table 10 (values in µM), isolate V108l, read-out: EC50): 0.026 µM
- EC50 [12, 17]: 0.82 µM
- EC50 ([13]; Table 10 (values in µM), isolate Y188C, read-out: EC50): 0.22 µM

Compound: CC(=O)NCc1cccc2c1nc(-c1c(F)cccc1F)n2Cc1c(F)cccc1F [compound 72]
- EC50 (µM) [2, 15]: NRVC

Compound: CC(=O)N(C)Cc1cccc2c1nc(-c1c(F)cccc1F)n2Cc1c(F)cccc1F [compound 73, 1-(2,6-Difluorobenzyl)-2-(2,6-difluorophenyl)-4-(N-acetyl-N-methyl)-aminomethylbenzimidazole]
- EC50 [2, 15]: 580 nM
